Experimental data reported in patent publication US12091425B2 (AMGEN INC., priority 2016, dated 2024).

These compounds were tested against T1, Mcl-1/Bim interaction, recombinant human Mcl-1 (171-327) (Homo sapiens, UniProt Q07820) (assay: Cell free Mcl-1: Bim Affinity Assay (Mcl-1 HTRF)). Details: TR-FRET, 0.1 nM Mcl-1 (171-327), 0.05 nM biotin-Bim (51-76).
T1 construct: made in house
Type: binding
Protocol: Cell free Mcl-1: Bim Affinity Assay (Mcl-1 HTRF)
The inhibition of the Mcl-1/Bim interaction was measured using a time-resolved fluorescence resonance energy transfer (TR-FRET) assay. […] A biotinylated peptide derived from human Bim (residues 51-76) was purchased from CPC Scientific (San Jose, CA). The TR-FRET assay was conducted in a 384-well white OptiPlatem (PerkinElmer, Waltham, MA) in a total volume of 40 μL. […] The reaction plates were further incubated overnight and then were read on an Envision® multimode reader (PerkinElmer). […] The IC50 values of test compounds were determined from duplicate data by analyzing competition curves using a four-parameter sigmoidal model in GraphPad Prism (GraphPad Software, San Diego, CA) or in Genedata Screener® (Genedata, Basel, Switzerland).

T1 sequence (Q07820 171-327): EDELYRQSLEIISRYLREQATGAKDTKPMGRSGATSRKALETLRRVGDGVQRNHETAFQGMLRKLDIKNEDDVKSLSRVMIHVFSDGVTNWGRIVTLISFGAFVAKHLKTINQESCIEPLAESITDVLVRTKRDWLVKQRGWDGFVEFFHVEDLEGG

Compound	IC50 [nM]
C[C@]12CC[C@H]1CN1C[C@@]3(CCCc4cc(Cl)ccc43)COc3ccc(cc31)C(=O)NS(=O)(=O)CCCCC[C@@H]2O (single isomer, unassigned) [Example 122]	7.17
CC(=O)N1C/C=C/CS(=O)(=O)NC(=O)c2ccc3c(c2)N(C[C@@H]2CC[C@H]2C1)C[C@@]1(CCCc2cc(Cl)ccc21)CO3.CC(=O)N1C/C=C\CS(=O)(=O)NC(=O)c2ccc3c(c2)N(C[C@@H]2CC[C@H]2C1)C[C@@]1(CCCc2cc(Cl)ccc21)CO3 (mixture of isomers) [Example 371, (1S,3′R,6′R,10′E)-8′-acetyl-6-chloro-3,4-dihydro-2H,15′H-spiro[naphthalene-1,22′-[20]oxa[13]thia[1,8,14]triazatetracyclo[14.7.2.0^3,6.0^19,24]pentacosa[10,16,18,24]tetraen]-15′-one 13′,13′-dioxide and (1S,3′R,6′R,10′Z)-8′-acetyl-6-chloro-3,4-dihydro-2H,15′H-spiro[naphthalene-1,22′-[20]oxa[13]thia[1,8,14]triazatetracyclo[14.7.2.0^3,6.0^19,24]pentacosa[10,16,18,24]tetraen]-15′-one 13′,13′-dioxide]	20.8
CCC1CCC=CC(OC(C)C(=O)N(C)C)C2CCC2CN2CC3(CCCc4cc(Cl)ccc43)COc3ccc(cc32)C(=O)NS1(=O)=O (mixture of isomers) [Example 985]	1.46

Continued, values first:

IC50 [nM]	Compound
3.98	CC[C@H]1CCCOC[C@@H]2CC[C@H]2CN2C[C@@]3(CCCc4cc(Cl)ccc43)COc3ccc(cc32)C(=O)NS1(=O)=O (single isomer, unassigned) [Example 369]
20.7	CN1CCCCS(=O)(=O)NC(=O)c2ccc3c(c2)N(C[C@@H]2CC[C@H]2C1=O)C[C@@]1(CCCc2cc(Cl)ccc21)CO3 [Example 99, (1S,3′R,6′R)-6-chloro-8′-methyl-3,4-dihydro-2H,7′H,15′H-spiro[naphthalene-1,22′-[20]oxa[13]thia[1,8,14]triazatetracyclo[14.7.2.0^3,6.0^19,24]pentacosa[16,18,24]trien]-7′,15′-dione 13′,13′-dioxide]
8.44	CC[C@@H]1CC/C=C/[C@H](OCC(=O)OC(C)(C)C)[C@@H]2CC[C@H]2CN2C[C@@]3(CCCc4cc(Cl)ccc43)COc3ccc(cc32)C(=O)NS1(=O)=O [Example 971, tert-butyl (((1S,3′R,6′R,7′S,8′E,12′R)-6-chloro-12′-ethyl-13′,13′-dioxido-15′-oxo-3,4-dihydro-2H-spiro[naphthalene-1,22′-[20]oxa[13]thia[1,14]diazatetracyclo[14.7.2.0^3,6.0^19,24]pentacosa [8,16,18,24]tetraen]-7′-yl)oxy)acetate]
3.48	CS(=O)(=O)CCO[C@@H]1CCCCCS(=O)(=O)NC(=O)c2ccc3c(c2)N(C[C@@H]2CC[C@H]21)C[C@@]1(CCCc2cc(Cl)ccc21)CO3 [Example 1096, (1S,3′R,6′R,7′R)-6-chloro-7′-(2-(methylsulfonyl)ethoxy)-3,4-dihydro-2H,15′H-spiro [naphthalene-1,22′-[20]oxa[13]thia[1,14]diazatetracyclo[14.7.2.0^3,6.0^19,24]pentacosa [16,18,24]trien]-15′-one 13′,13′-dioxide]
3.74	CC[C@@H]1CCCOC[C@@H]2CC[C@H]2CN2C[C@@]3(CCCc4cc(Cl)ccc43)COc3ccc(cc32)C(=O)NS1(=O)=O (single isomer, unassigned) [Example 368]
0.785	COC[C@@H]1CC/C=C/[C@H](OC)[C@@H]2CC[C@H]2CN2C[C@@]3(CCCc4cc(Cl)ccc43)COc3ccc(cc32)C(=O)NS1(=O)=O [Example 444, (1S,3′R,6′R,7′S,8′E,12′S)-6-chloro-7′-methoxy-12′-(methoxymethyl)-3,4-dihydro-2H,15′H-spiro[naphthalene-1,22′-[20]oxa[13]thia[1,14]diazatetracyclo[14.7.2.0^3,6.0^19,24]pentacosa [8,16,18,24]tetraen]-15′-one 13′,13′-dioxide]
31.7	COc1ccc(CN2CCCCS(=O)(=O)NC(=O)c3ccc4c(c3)N(C[C@@H]3CC[C@H]3C2=O)C[C@@]2(CCCc3cc(Cl)ccc32)CO4)cc1 [Example 96, (1S,3′R,6′R)-6-chloro-8′-(4-methoxybenzyl)-3,4-dihydro-2H,7′H,15′H-spiro[naphthalene-1,22′-[20]oxa[13]thia[1,8,14]triazatetracyclo[14.7.2.0^3,6.0^19,24]pentacosa[16,18,24]trien]-7′,15′-dione 13′,13′-dioxide]
5.48	CC[C@@H]1CC/C=C\[C@@H](NC(C)=O)[C@@H]2CC[C@H]2CN2C[C@@]3(CCCc4cc(Cl)ccc43)COc3ccc(cc32)C(=O)NS1(=O)=O (single isomer, unassigned) [Example 1079]

Same assay, conditions: cell free Mcl-1:Bim TR-FRET, recombinant human Mcl-1 (171-327)

Compound	IC50 [nM]
C[C@@H]1C[C@@H]2C[C@@H](O1)[C@@H]1CC[C@H]1CN1C[C@@]3(CCCc4cc(Cl)ccc43)COc3ccc(cc31)C(=O)NS(=O)(=O)CCO2 (single isomer, unassigned) [Example 876]	18.3
N-((1S,3′R,6′R,7′S)-6-chloro-13′,13′-dioxido-15′-oxo-3,4-dihydro-2H-spiro[naphthalene-1,22′-[20]oxa[13]thia[1,14]diazatetracyclo[14.7.2.0^3,6.0^19,24]pentacosa [16,18,24]trien]-7′-yl)acetamide or N-((1S,3′R,6′R,7′R)-6-chloro-13′,13′-dioxido-15′-oxo-3,4-dihydro-2H-spiro[naphthalene-1,22′-[20]oxa[13]thia[1,14]diazatetracyclo[14.7.2.0^3,6.0^19,24]pentacosa [16,18,24]trien]-7′-yl)acetamide [Example 934]	2.07
C[C@@H]1[C@H](O)C/C=C/C[C@@H]2CC[C@H]2CN2C[C@@]3(CCCc4cc(Cl)ccc43)COc3ccc(cc32)C(=O)NS1(=O)=O (single isomer, unassigned) [Example 506]	15.5
O=C1NS(=O)(=O)C[C@H](O)/C=C/C[C@H](O)[C@@H]2CC[C@H]2CN2C[C@@]3(CCCc4cc(Cl)ccc43)COc3ccc1cc32 (single isomer, unassigned) [Example 598]	1.49
O=C(C[C@@H]1CC/C=C/[C@H](O)[C@@H]2CC[C@H]2CN2C[C@@]3(CCCc4cc(Cl)ccc43)COc3ccc(cc32)C(=O)NS1(=O)=O)Nc1ccccc1 (single isomer, unassigned) [Example 630]	1.61
C=C1[C@@H](O)[C@H](O)CC[C@@H](CC)S(=O)(=O)NC(=O)c2ccc3c(c2)N(C[C@@H]2CC[C@@H]12)C[C@@]1(CCCc2cc(Cl)ccc21)CO3 (single isomer, unassigned) [Example 877]	26.2
CC(C)C(=O)N[C@@H]1CCCCCS(=O)(=O)NC(=O)c2ccc3c(c2)N(C[C@@H]2CC[C@H]21)C[C@@]1(CCCc2cc(Cl)ccc21)CO3 (single isomer, unassigned) [Example 936]	4.74
CC[C@H]1CC/C=C/[C@H](O)[C@@H]2CC[C@H]2CN2C[C@@]3(CCc4cc(Cl)ccc43)COc3ccc(cc32)C(=O)NS1(=O)=O (single isomer, unassigned) [Example 700]	27.7
O=C1NS(=O)(=O)CCOCCC[C@@H]2CC[C@H]2CN2C[C@@]3(CCc4cc(Cl)ccc43)COc3ccc1cc32 (single isomer, unassigned) [Example 816]	4.72
O=C1NS(=O)(=O)C[C@H](CO)/C=C/C[C@H](O)[C@@H]2CC[C@H]2CN2C[C@@]3(CCCc4cc(Cl)ccc43)COc3ccc1cc32 (single isomer, unassigned) [Example 706]	4.51
CN(C(=O)C1CC1)[C@@H]1CCCCCS(=O)(=O)NC(=O)c2ccc3c(c2)N(C[C@@H]2CC[C@H]21)C[C@@]1(CCCc2cc(Cl)ccc21)CO3 (single isomer, unassigned) [Example 943]	16.2
O=C1NS(=O)(=O)C[C@@H](C2CC2)C/C=C/[C@H](O)[C@@H]2CC[C@H]2CN2C[C@@]3(CCCc4cc(Cl)ccc43)COc3ccc1cc32 (single isomer, unassigned) [Example 684]	11
O=C1NS(=O)(=O)CCCC[C@@H](O)[C@H](O)[C@@H]2CC[C@H]2CN2C[C@@]3(CCCc4cc(Cl)ccc43)COc3ccc1cc32 (single isomer, unassigned) [Example 853, (1S,3′R,6′R,7′R,8′R)-6-chloro-7′,8′-dihydroxy-3,4-dihydro-2H,15′H-spiro[naphthalene-1,22′-[20]oxa[13]thia[1,14]diazatetracyclo[14.7.2.0^3,6.0^19,24]pentacosa [16,18,24]trien]-15′-one 13′,13′-dioxide or (1S,3′R,6′R,7′S,8′S)-6-chloro-7′,8′-dihydroxy-3,4-dihydro-2H,15′H-spiro[naphthalene-1,22′-[20]oxa[13]thia[1,14]diazatetracyclo[14.7.2.0^3,6.0^19,24]pentacosa [16,18,24]trien]-15′-one 13′,13′-dioxide]	11.7
CN(C(=O)C1CC1)C1CCCCCS(=O)(=O)NC(=O)c2ccc3c(c2)N(CC2CCC21)CC1(CCCc2cc(Cl)ccc21)CO3 (single isomer, unassigned) [Example 942]	36.4
O=C1C[C@H](O)[C@@H]2CC[C@H]2CN2C[C@@]3(CCCc4cc(Cl)ccc43)COc3ccc(cc32)C(=O)NS(=O)(=O)CCN1 (single isomer, unassigned) [Example 680]	26.8
O=C1CC[C@@H]2CC[C@H]2CN2C[C@@]3(CCCc4cc(Cl)ccc43)COc3ccc(cc32)C(=O)NS(=O)(=O)CCN1 [Example 945, (1S,3′R,6′S)-6-chloro-3,4-dihydro-2H,9′H,15′H-spiro[naphthalene-1,22′-[20]oxa[13]thia[1,10,14]triazatetracyclo[14.7.2.0^3,6.0^19,24]pentacosa[16,18,24]triene]-9′,15′-dione 13′,13′-dioxide]	12
